Legend:
Format in all cases: in vitro ADME, rabbit
[1] = Ex vivo iontophoretic delivery of fluorescein to the posterior eye segment, quantified in the vitreous by fluorometer; conditions: for Flux (time averaged): calculated from final concentration in the vitreous; for Concentration in Vitreous: lens loaded with 0.01 mg/mL fluorescein in HEPES; for electrophoretic velocity from the data of Table 3: order of magnitude
From the text: (§1) Materials: Mature cadaver rabbit eyes were purchased from Pel-Freez Biologicals (Rogers, AR). The Nile Blue A dye (75% dye content) and Fluorescein were purchased from Sigma-Aldrich (St. Louis, MO). Electrode materials were made 3D printed with conductive PLA filament (Proto Pasta, Vancouver, WA). Cadaver rabbit eyes were fixed in Margo solution containing paraformaldehyde and glutaraldehyde purchased from Fisher Scientific (Hampton, NH). Soaking agents for lenses included phosphate buffered saline (PBS) or a HEPES solution purchased from Fisher Scientific (Hampton, NH). Commercial contact lenses Acuvue Oasys (14 mm diameter, 8.4 mm base curve, 0.0 power) were used in the study.
(§2) Lens Preparation: Contact lenses were loaded by soaking in a 1 mg/mL Nile Blue solution in PBS or in a 0.01 mg/mL fluorescein solution in HEPES overnight. Lenses were loaded overnight in an enclosed space to prevent photobleaching of any species. […] Both species have low molecular weights and therefore have rapid uptakes into the lenses.
(§3) Application of Electric Field: Loaded contact lenses were placed at the periphery of the cornea, on the sclera, and the two electrodes were placed over the lenses. Electrodes were attached to a power source that was set to the desired current (FIG. 8). A syringe pump was configured to gently apply a drop of PBS (≈30 μL) every 30 seconds on to the cornea and would flow to the lenses, providing a thin film to keep them hydrated. The application of PBS also served as an approximate mimic of the in vivo tear film. The submersion of the lens was also crucial to ensure that if any bubbling from electrochemically generated gases were to occur, it would be easily visible. The field was applied for the desired duration and then the power source and lenses were removed. Experiments were conducted with the lenses soaked in PBS for the anode component and HEPES for the cathode. The Nile Blue and fluorescein experiments were each conducted with three different combinations of time and current.
Quantification of Fluorescein Delivery: Delivery of fluorescein to the posterior eye segment was conducted four times for each variation of time and current. After completion, eyes were submerged in PBS for 1 hour and then refrozen. Once the eyes had completely solidified, the vitreous was removed by cutting away the rest of the eye. All samples of same time and current were combined and thawed. After thawing was complete, the vitreous was put through a 0.22 μm filter to ensure no excessive tissue was present in the system. Relative fluorescent intensity of each sample was found using a Quantech fluorometer and the corresponding concentrations of fluorescein was found through a calibration curve.
Efficient transport of fluorescein to the vitreous: The fluorescein was loaded into lenses in a HEPES solution, which alleviated the damage done to the eye during the generation of caustic species from the electrochemical reactions. In order to quantify the delivery of fluorescein to the posterior eye segment, experiments were conducted at three different combinations or time and current and were compared to a control. The electric fields chosen were 0.25 mA (high current) and 0.125 mA (low current) for either 1 hour (short time) or 2 hours (long time). After the application of the electric field to the sclera, the vitreous was harvested and fluorescence was quantified using a fluorometer. The concentrations of fluorescein were found using a calibration curve for the relative fluorescence (Table 3). Additionally in FIGS. 11A-11B, the delivery and localization of fluorescein can be seen in the posterior eye segment. Fluorescence was produced using a UV light source and observed thorough an orange filter. The regions near the cathode component show localizations of fluorescein at the exterior and interior surfaces. The final concentration in the vitreous was also used to calculate the time averaged flux of the fluorescein and the electrophoretic mobility. […]

[2] = Ex vivo iontophoretic delivery of Nile Blue A dye through the cornea from a drug loaded contact lens (camera and confocal imaging)
From the text: Materials: Mature cadaver rabbit eyes were purchased from Pel-Freez Biologicals (Rogers, AR). The Nile Blue A dye was purchased from Sigma-Aldrich (St. Louis, MO) with a 75% dye content. Electrode materials were either made from generic lead-free, silver bearing solder or was 3D printed with conductive PLA filament (Proto Pasta, Vancouver, WA). Cadaver rabbit eyes were fixed in Margo solution containing paraformaldehyde and glutaraldehyde purchased from Fisher Scientific (Hampton, NH). Soaking agents for lenses included phosphate buffered saline (PBS), 1 M HEPES, a HEPES buffer solution containing sodium chloride, calcium chloride, magnesium chloride, and potassium phosphate were all purchased from Fisher Scientific (Hampton, NH). Commercial contact lenses Acuvue Oasys (14 mm diameter, 8.4 mm base curve, 0.0 power) were used in the study.
Lens Preparation: Contact lenses were loaded by soaking in a Nile Blue A dye solution (1 mg/mL) in DI water for two days. To investigate the effect of buffer, lenses were soaked in either pure HEPES or HEPES buffer for 10 minutes prior to placement on the cadaver eyes. The molecular weight of HEPES is 238 allowing rapid uptake by the contact lenses. […]
In order to quantify drug delivery, diffusion efficacy was measured by simultaneous comparison of four separate eyes, each corresponding to a different condition. […]

[3] = Ex vivo iontophoretic delivery of Nile Blue to the posterior eye segment (confocal microscopy)
From the text: as §1, §2
as §3, with “current. […]” for “current.”

Flux (time averaged) ([1]; 1 hr 0.125 mA) | Concentration in Vitreous ([1]; 1 hr 0.125 mA) [ng/mL] | Flux (time averaged) ([1]; 1 hr 0.250 mA) | Concentration in Vitreous ([1]; 1 hr 0.250 mA) [ng/mL] | Flux (time averaged) ([1]; 2 hr 0.125 mA) | Concentration in Vitreous ([1]; 2 hr 0.125 mA) [ng/mL] | electrophoretic velocity from the data of Table 3 ([1]; high current (0.25 mA) experiments) [μm/s] | electrophoretic velocity from the data of Table 3 ([1]; low current (0.125 mA) experiments) [μm/s] | Nile Blue A dye present throughout the cornea (confocal) ([2]; diffusion only, no electric field, from contact lens or standing solution, after 1 hr) | Nile Blue A dye delivered to the cornea (ROI analysis) ([2]; lenses loaded in DI water, all current and time conditions (0.25 or 0.125 mA, 30 or 60 min)) | distribution of Nile Blue A dye across sclera, choroid, and retina ([3]; all applied currents and times) | transport of Nile Blue A dye across sclera, choroid, and retina (confocal) ([3]; low current and short time duration) | SMILES | damage to the posterior eye segment (confocal imaging) ([3]; hybrid lenses: PBS at anode, HEPES at cathode)
7.18 kg/m^2s [×10^7] | 33.8 | 14.93 kg/m^2s [×10^7] | 70.4 | 6.46 kg/m^2s [×10^7] | 60.9 | ~2.6 | ~1.3 |  |  |  |  | O=C1OC2(c3ccc(O)cc3Oc3cc(O)ccc32)c2ccccc21 [Fluorescein] | 
 |  |  |  |  |  |  |  | very minor amounts | significant quantities | uniform | sufficient transport | CC[N+](CC)=c1ccc2nc3c(cc(N)c4ccccc43)oc-2c1 [Nile Blue A dye] | no apparent damage
